Data: EPA's ToxRefDB 2

How the values were obtained:
primate [1] = conditions: Sub-acute repeat dose toxicity; Oral; Gavage/Intubation; dose end: 5 day; group: systemic; systemic / in life observation / food consumption / food consumption + systemic / in life observation / clinical signs / emesis + systemic…
primate [2] = conditions: Sub-acute repeat dose toxicity; Oral; Gavage/Intubation; dose end: 5 day; group: systemic; systemic / clinical chemistry / aspartate aminotransferase (ast/sgot) / aspartate aminotransferase (ast/sgot) + systemic / clinical …
rat [3] = conditions: Sub-acute repeat dose toxicity, Oral, Gavage/Intubation, dose end: 28 day, group: systemic
rat [4] = conditions: Sub-acute repeat dose toxicity, Oral, Gavage/Intubation, dose end: 7 day, group: systemic
rat [5] = conditions: Sub-acute repeat dose toxicity; Oral; Gavage/Intubation; dose end: 4 day; group: systemic; systemic / in life observation / clinical signs / impaired reflex, nos
rat [6] = conditions: Sub-acute repeat dose toxicity, Oral, Gavage/Intubation, dose end: 7 day, group: systemic; remark: listed apart in the source
primate [7] = conditions: Chronic toxicity, macaque, Oral, Gavage/Intubation, dose end: 6 month, group: systemic
rabbit = conditions: Prenatal developmental toxicity study, new zealand white, Oral, Gavage/Intubation, dose end: 19 GD
rat [8] = conditions: Chronic toxicity, sprague dawley, Oral, Gavage/Intubation, dose end: 6 month, group: systemic
rat [9] = conditions: Sub-acute repeat dose toxicity; sprague dawley; Oral; Gavage/Intubation; dose end: 28 day; group: systemic; systemic / in life observation / body weight / body weight gain + systemic / in life observation / food consumption / food consumption + …
dog = conditions: Sub-acute repeat dose toxicity, beagle, Oral, Capsule, dose end: 1 month, group: systemic
primate [10] = conditions: Sub-acute repeat dose toxicity, macaque, Oral, Gavage/Intubation, dose end: 1 month, group: systemic
rat [11] = conditions: Fertility (Segment I), sprague dawley, Oral, Gavage/Intubation, dose end: 7 GD
rat [12] = conditions: Prenatal developmental toxicity study; sprague dawley; Oral; Gavage/Intubation; dose end: 17 GD; group: maternal; systemic / in life observation / body weight / body weight gain + systemic / in life observation / clinical signs / fur (altered appearance…
rat [13] = conditions: Prenatal developmental toxicity study; sprague dawley; Oral; Gavage/Intubation; dose end: 17 GD; group: maternal; systemic / in life observation / body weight / body weight + systemic / in life observation / body weight / body weight gain + systemic / in…
[14] = systemic / hematology / blood clotting / blood clotting - activated partial thromboplastin time + systemic / hematology / blood clotting / …
[15] = systemic / hematology / mean corpuscular hemoglobin (mch) / mean corpuscular hemoglobin (mch) + systemic / hematology / mean corpuscular …
[16] = systemic / hematology / blood clotting / blood clotting - prothrombin time + systemic / organ weight / heart / relative to body weight + …
[17] = systemic / hematology / blood clotting / blood clotting - prothrombin time + systemic / organ weight / liver / absolute + systemic / organ …
[18] = systemic / hematology / blood clotting / blood clotting - prothrombin time + systemic / hematology / lymphocyte / lymphocyte + systemic / in…
[19] = systemic / clinical chemistry / alanine aminotransferase (alt/sgpt) / alanine aminotransferase (alt/sgpt)
[20] = systemic / clinical chemistry / alanine aminotransferase (alt/sgpt) / alanine aminotransferase (alt/sgpt) + systemic / pathology microscopic…
[21] = group: developmental, developmental / developmental malformation / eye / open eye
[22] = group: maternal, systemic / in life observation / body weight / body weight gain + systemic / in life observation / food consumption / food consumption + …
[23] = group: maternal, systemic / pathology gross / pancreas / irregular surface + systemic / pathology gross / pancreas / reduced size
[24] = systemic / clinical chemistry / [other] / [other] + systemic / clinical chemistry / phosphorus / phosphate + systemic / clinical chemistry…
[25] = systemic / clinical chemistry / [other] / [other] + systemic / clinical chemistry / phosphorus / phosphate + systemic / in life observation…
[26] = systemic / clinical chemistry / alanine aminotransferase (alt/sgpt) / alanine aminotransferase (alt/sgpt) + systemic / clinical chemistry / …
[27] = systemic / in life observation / clinical signs / [other] + systemic / in life observation / clinical signs / defecation (diarrhea) + …
[28] = systemic / in life observation / food consumption / food consumption
[29] = group: maternal, reproductive / reproductive performance / estrous cycle / abnormal
[30] = group: parental, systemic / in life observation / body weight / body weight gain + systemic / in life observation / clinical signs / piloerection + systemic…
[31] = group: parental, systemic / in life observation / body weight / body weight gain + systemic / in life observation / food consumption / food consumption + …

Compound: O=C(CO)N1CCC(c2[nH]nc(-c3ccc(Cl)cc3F)c2-c2ccncn2)CC1
- LEL (primate [1]): 600 mg/kg/day
- LOAEL (primate [1]): > 600 mg/kg/day
- NEL (primate [1]): < 600 mg/kg/day
- NOAEL (primate [1]): ≥ 600 mg/kg/day
- LEL (primate [2]): 600 mg/kg/day
- LOAEL (primate [2]): > 600 mg/kg/day
- NEL (primate [2]): < 600 mg/kg/day
- NOAEL (primate [2]): ≥ 600 mg/kg/day
- LOAEL (rat [3]; [14]): > 2000 mg/kg/day
- NOAEL (rat [3]; [14]): ≥ 2000 mg/kg/day
- LEL (rat [3]; [15]): 20 mg/kg/day
- NEL (rat [3]; [15]): < 20 mg/kg/day
- LOAEL (rat [4]; [16]): > 2000 mg/kg/day
- NOAEL (rat [4]; [16]): ≥ 2000 mg/kg/day
- LEL (rat [4]; [17]): 200 mg/kg/day
- NEL (rat [4]; [17]): < 200 mg/kg/day
- LEL (rat [5]): 50 mg/kg/day
- LOAEL (rat [5]): > 2000 mg/kg/day
- NEL (rat [5]): < 50 mg/kg/day
- NOAEL (rat [5]): ≥ 2000 mg/kg/day
- LOAEL (rat [6]; [18]): > 2000 mg/kg/day
- NOAEL (rat [6]; [18]): ≥ 2000 mg/kg/day
- LEL (rat [6]; [16]): 200 mg/kg/day
- NEL (rat [6]; [16]): < 200 mg/kg/day

Compound: COc1cc(-c2nc(NC(=O)c3cc4cc(C)cc(C)c4n3CC(=O)O)sc2CCC2CCCCC2)c(OC)cc1Cl.O=C(O)C(F)(F)F
- LEL (primate [7]; [19]): 0.6 mg/kg/day
- NEL (primate [7]; [19]): < 0.6 mg/kg/day
- LOAEL (primate [7]; [20]): 3 mg/kg/day
- NOAEL (primate [7]; [20]): 0.6 mg/kg/day
- LEL (rabbit; [21]): 10 mg/kg/day
- LOAEL (rabbit; [21]): 10 mg/kg/day
- NEL (rabbit; [21]): 3 mg/kg/day
- NOAEL (rabbit; [21]): 3 mg/kg/day
- LOAEL (rabbit; [22]): > 10 mg/kg/day
- NOAEL (rabbit; [22]): ≥ 10 mg/kg/day
- LEL (rabbit; [23]): 0.5 mg/kg/day
- NEL (rabbit; [23]): < 0.5 mg/kg/day
- LOAEL (rat [8]; [24]): > 250 mg/kg/day
- NOAEL (rat [8]; [24]): ≥ 250 mg/kg/day
- LEL (rat [8]; [25]): 1 mg/kg/day
- NEL (rat [8]; [25]): < 1 mg/kg/day
- LEL (rat [9]): 1 mg/kg/day
- LOAEL (rat [9]): > 30 mg/kg/day
- NEL (rat [9]): < 1 mg/kg/day
- NOAEL (rat [9]): ≥ 30 mg/kg/day
- LOAEL (dog; [26]): > 25 mg/kg/day
- NOAEL (dog; [26]): ≥ 25 mg/kg/day
- LEL (dog; [20]): 1 mg/kg/day
- NEL (dog; [20]): < 1 mg/kg/day
- LOAEL (primate [10]; [27]): 5 mg/kg/day
- NOAEL (primate [10]; [27]): 1 mg/kg/day
- LEL (primate [10]; [28]): 1 mg/kg/day
- NEL (primate [10]; [28]): < 1 mg/kg/day
- LEL (rat [11]; [29]): 200 mg/kg/day
- LOAEL (rat [11]; [29]): > 1000 mg/kg/day
- NEL (rat [11]; [29]): 50 mg/kg/day
- NOAEL (rat [11]; [29]): ≥ 1000 mg/kg/day
- LOAEL (rat [11]; [30]): > 1000 mg/kg/day
- NOAEL (rat [11]; [30]): ≥ 1000 mg/kg/day
- LEL (rat [11]; [31]): 50 mg/kg/day
- NEL (rat [11]; [31]): < 50 mg/kg/day
- LEL (rat [12]): 50 mg/kg/day
- LOAEL (rat [12]): > 1000 mg/kg/day
- NEL (rat [12]): < 50 mg/kg/day
- NOAEL (rat [12]): ≥ 1000 mg/kg/day
- LEL (rat [13]): 250 mg/kg/day
- LOAEL (rat [13]): > 500 mg/kg/day
- NEL (rat [13]): < 250 mg/kg/day
- NOAEL (rat [13]): ≥ 500 mg/kg/day
